A short description of data set [1]: Dissociation constant, pKa of the compound by spectrophotometry. The class given is physicochemical.
In data set [2] the target is Cystic fibrosis transmembrane conductance regulator (Homo sapiens) (UniProt P13569). Description: Inhibition of wild type CFTR expressed in CHO cells by [125I]iodide efflux assay. The class given is cell-based.

The text below walks through data of ChEMBL document CHEMBL1777708, “An expeditious access to 5-pyrimidinol derivatives from cyclic methylglyoxal diadducts, formation of argpyrimidines under physiological conditions and discovery of new CFTR inhibitors” (Eur J Med Chem, 2011).

Each structure is given as a SMILES string. Active and inactive are the calls of the source. The rule behind the calls is not given here.

Chain of Cystic fibrosis transmembrane conductance regulator (Homo sapiens) (P13569 whole entry, looked up): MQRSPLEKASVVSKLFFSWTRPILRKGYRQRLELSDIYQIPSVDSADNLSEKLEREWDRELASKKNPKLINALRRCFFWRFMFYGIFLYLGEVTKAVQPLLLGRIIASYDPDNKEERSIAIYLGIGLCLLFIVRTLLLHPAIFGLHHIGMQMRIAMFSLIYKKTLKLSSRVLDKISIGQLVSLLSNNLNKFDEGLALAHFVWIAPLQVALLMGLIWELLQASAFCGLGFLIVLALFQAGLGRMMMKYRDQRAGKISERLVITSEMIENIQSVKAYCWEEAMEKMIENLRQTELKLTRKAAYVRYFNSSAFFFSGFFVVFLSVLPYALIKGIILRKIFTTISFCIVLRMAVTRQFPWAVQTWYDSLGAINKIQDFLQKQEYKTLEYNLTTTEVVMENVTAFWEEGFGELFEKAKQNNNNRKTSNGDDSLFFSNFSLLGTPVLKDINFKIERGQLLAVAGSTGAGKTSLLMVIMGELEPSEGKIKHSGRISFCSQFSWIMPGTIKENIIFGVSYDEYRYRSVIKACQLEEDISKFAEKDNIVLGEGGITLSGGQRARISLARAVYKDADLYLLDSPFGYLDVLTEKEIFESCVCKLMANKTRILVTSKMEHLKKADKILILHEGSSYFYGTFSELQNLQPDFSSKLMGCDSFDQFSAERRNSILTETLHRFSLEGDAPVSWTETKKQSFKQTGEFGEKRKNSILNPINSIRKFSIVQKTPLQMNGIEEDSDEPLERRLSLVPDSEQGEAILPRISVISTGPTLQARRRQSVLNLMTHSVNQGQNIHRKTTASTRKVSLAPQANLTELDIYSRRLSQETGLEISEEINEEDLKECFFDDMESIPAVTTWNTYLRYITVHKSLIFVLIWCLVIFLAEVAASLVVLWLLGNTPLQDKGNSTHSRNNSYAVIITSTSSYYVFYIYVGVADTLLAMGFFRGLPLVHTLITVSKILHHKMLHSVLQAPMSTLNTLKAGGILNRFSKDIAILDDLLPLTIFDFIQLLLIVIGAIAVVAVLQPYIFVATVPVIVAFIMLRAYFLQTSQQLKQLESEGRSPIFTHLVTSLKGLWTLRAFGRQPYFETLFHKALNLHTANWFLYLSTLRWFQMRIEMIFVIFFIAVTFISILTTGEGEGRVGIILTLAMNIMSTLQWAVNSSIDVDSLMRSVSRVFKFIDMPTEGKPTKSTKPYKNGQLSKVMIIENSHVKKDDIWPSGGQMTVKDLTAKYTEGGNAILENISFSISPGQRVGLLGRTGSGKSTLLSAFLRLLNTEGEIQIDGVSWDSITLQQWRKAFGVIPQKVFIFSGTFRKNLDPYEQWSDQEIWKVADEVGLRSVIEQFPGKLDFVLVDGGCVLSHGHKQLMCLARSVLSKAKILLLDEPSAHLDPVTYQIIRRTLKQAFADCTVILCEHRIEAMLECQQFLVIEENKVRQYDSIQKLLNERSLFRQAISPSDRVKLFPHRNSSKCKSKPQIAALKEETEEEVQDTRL

Take `Cc1nc2c3ccccc3cc[n+]2c(C)c1[O-]`: the pKa in data set [1] stood at 4.
As to `C[C@]1(C(=O)O)N=C2C=CC=CN2[C@](C)(O)[C@H]1O`, the inhibition result in data set [2] was “inactive”.
With `C[C@]1(C(=O)O)N=C2C=CC=CN2[C@](C)(O)[C@@H]1O`, the inhibition result in data set [2] was “inactive”.
